{"source": "paper PMC8383264", "about": "“Structural Characterization of the Reaction and Substrate Specificity Mechanisms of Pathogenic Fungal Acetyl-CoA Synthetases” (ACS Chemical Biology, 2021)", "key": {"[1]": {"target": "T1, CnAcs1 (Cryptococcus neoformans, UniProt J9VFT1)", "test": "Coupled continuous pyrophosphate detection assay (EnzChek) of ACS activity", "conditions": "for utilization as substrate for CnAcs1: alternative acid substrates"}, "[2]": {"target": "T1, CnAcs1", "test": "biochemical", "format": "binding", "conditions": "read-out: thermal shift (ΔTm)"}, "[3]": {"target": "T2, A. fumigatus Acs1 (Aspergillus fumigatus, UniProt Q4WQ02)", "T2 sequence (Q4WQ02 2-670)": "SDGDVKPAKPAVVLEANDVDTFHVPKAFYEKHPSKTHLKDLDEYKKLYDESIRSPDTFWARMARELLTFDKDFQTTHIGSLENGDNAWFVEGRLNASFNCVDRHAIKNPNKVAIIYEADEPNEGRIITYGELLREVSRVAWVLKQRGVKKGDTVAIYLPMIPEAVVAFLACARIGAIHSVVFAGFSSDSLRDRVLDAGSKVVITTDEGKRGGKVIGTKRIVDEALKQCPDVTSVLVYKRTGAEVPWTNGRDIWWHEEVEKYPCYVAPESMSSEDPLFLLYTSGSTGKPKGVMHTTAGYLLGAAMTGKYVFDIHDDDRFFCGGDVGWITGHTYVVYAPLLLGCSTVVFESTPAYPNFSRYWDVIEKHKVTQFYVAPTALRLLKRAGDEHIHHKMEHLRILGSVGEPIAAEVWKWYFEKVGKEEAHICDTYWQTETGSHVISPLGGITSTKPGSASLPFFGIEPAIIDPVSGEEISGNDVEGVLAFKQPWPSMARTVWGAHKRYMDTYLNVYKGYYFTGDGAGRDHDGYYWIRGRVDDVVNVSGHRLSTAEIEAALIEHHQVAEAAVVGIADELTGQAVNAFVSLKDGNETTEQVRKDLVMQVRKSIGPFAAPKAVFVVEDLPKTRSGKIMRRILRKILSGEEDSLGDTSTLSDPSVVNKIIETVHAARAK", "test": "Coupled continuous pyrophosphate detection assay (EnzChek) of ACS activity"}, "[4]": {"target": "C. albicans Acs1 (Candida albicans, UniProt Q8NJN3)", "sequence (Q8NJN3 2-671 limits assumed)": "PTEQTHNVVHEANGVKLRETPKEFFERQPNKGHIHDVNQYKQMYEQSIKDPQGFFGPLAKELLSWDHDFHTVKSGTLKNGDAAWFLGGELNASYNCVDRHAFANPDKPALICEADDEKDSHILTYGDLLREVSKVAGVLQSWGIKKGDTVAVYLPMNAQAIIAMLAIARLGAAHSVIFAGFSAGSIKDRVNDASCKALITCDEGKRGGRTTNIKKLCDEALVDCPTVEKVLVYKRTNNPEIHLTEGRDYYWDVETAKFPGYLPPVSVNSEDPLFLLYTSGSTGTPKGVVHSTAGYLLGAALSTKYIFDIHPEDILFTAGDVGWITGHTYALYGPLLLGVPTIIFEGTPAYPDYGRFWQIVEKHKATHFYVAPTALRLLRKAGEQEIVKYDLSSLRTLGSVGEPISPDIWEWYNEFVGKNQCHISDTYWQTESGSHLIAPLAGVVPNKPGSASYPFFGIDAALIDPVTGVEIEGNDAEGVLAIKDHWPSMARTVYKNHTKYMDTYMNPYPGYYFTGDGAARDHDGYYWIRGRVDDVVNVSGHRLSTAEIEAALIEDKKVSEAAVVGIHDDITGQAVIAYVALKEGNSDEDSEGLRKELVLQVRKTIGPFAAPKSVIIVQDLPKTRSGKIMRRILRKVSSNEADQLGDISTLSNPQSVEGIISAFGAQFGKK", "test": "Coupled continuous pyrophosphate detection assay (EnzChek) of ACS activity"}, "[5]": {"target": "C. immitis Acs1 (Coccidioides immitis, UniProt J3KJC6)", "sequence (J3KJC6 2-691 limits assumed)": "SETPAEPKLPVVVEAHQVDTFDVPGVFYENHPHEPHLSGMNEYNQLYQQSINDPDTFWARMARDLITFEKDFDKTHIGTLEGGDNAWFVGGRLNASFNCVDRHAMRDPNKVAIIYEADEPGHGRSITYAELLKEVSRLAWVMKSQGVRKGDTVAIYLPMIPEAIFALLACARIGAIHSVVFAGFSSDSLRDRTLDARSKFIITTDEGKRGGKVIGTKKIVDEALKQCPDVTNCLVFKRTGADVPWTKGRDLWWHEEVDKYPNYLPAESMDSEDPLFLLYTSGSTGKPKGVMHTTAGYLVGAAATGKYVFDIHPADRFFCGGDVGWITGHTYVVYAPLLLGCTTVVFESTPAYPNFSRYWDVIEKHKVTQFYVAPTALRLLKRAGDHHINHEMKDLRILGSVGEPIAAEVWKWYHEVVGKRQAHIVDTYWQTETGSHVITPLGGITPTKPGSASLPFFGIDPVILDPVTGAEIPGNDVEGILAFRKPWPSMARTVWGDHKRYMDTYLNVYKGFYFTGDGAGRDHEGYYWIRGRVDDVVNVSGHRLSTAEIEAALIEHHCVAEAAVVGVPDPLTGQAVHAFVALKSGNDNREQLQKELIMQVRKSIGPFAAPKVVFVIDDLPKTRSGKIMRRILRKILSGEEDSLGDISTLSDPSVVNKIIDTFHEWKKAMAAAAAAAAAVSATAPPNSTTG", "test": "biochemical"}, "[6]": {"target": "C. posadasii Acs1 (Coccidioides posadasii, UniProt C5PGB4)", "sequence (C5PGB4 2-691 limits assumed)": "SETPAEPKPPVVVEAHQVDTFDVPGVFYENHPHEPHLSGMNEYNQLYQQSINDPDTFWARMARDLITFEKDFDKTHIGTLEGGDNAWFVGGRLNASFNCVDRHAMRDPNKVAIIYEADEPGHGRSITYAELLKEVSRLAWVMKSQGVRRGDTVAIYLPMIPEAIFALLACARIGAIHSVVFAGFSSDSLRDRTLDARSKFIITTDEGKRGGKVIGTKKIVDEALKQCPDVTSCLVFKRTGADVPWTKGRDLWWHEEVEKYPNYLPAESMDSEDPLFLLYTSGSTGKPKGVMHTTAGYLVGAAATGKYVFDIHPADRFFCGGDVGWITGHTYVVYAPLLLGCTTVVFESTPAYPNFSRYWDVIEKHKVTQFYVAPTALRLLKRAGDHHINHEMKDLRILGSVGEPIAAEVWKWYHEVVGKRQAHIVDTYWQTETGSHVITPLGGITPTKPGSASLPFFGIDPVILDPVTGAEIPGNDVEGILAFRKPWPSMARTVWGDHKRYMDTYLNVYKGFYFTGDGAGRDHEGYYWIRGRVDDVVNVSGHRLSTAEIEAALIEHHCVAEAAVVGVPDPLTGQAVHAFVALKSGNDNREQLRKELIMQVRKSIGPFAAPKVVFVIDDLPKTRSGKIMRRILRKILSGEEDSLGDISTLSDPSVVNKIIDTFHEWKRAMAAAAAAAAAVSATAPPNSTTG", "test": "biochemical"}, "[7]": {"tested_on": "CC(C)(COP(=O)(O)OP(=O)(O)OC[C@H]1O[C@@H](n2cnc3c(N)ncnc32)[C@H](O)[C@@H]1OP(=O)(O)O)[C@@H](O)C(=O)NCCC(=O)NCCS", "test": "purified protein, by the assay type"}, "[8]": {"tested_on": "Nc1ncnc2c1ncn2[C@@H]1O[C@H](COP(=O)(O)OP(=O)(O)OP(=O)(O)O)[C@@H](O)[C@H]1O", "test": "purified protein, by the assay type", "conditions": "37.0 °C"}, "[9]": {"substrate": "CC(C)(COP(=O)(O)OP(=O)(O)OC[C@H]1O[C@@H](n2cnc3c(N)ncnc32)[C@H](O)[C@@H]1OP(=O)(O)O)[C@@H](O)C(=O)NCCC(=O)NCCS", "test": "purified protein, by the assay type", "conditions": "37 °C, ±S.E.M."}, "[10]": {"substrate": "Nc1ncnc2c1ncn2[C@@H]1O[C@H](COP(=O)(O)OP(=O)(O)OP(=O)(O)O)[C@@H](O)[C@H]1O", "test": "purified protein, by the assay type", "conditions": "37 °C, ±S.E.M."}, "[11]": {"conditions": "other: substrate Km, other substrates in excess (ATP 2.5 mM, CoA 1 mM, sodium acetate 0.5 mM)"}, "[12]": {"conditions": "other: substrate Km, other substrates in excess"}, "[13]": {"conditions": "other: commercially available enzyme, control, other substrates in excess"}}}
{"molecule": "Nc1ncnc2c1ncn2[C@@H]1O[C@H](COS(N)(=O)=O)[C@@H](O)[C@H]1O", "note": "[AMS, adenosine monosulfonamide]", "values": [{"measurement": "Ki", "setting": "[1]", "result": "> 50000", "unit": "nM"}, {"measurement": "ΔTm at 1000 µM", "setting": "[2]", "result": -0.2, "unit": "°C"}]}
{"molecule": "Nc1ncnc2c1ncn2[C@@H]1O[C@H](COP(=O)(O)OP(=O)(O)OP(=O)(O)O)[C@@H](O)[C@H]1O", "note": "[ATP, adenosine triphosphate, reference compound]", "values": [{"measurement": "calculated binding energy ΔG", "setting": "[1]", "result": -6, "unit": "kcal/mol"}]}
{"molecule": "CC(=O)NS(=O)(=O)OC[C@H]1O[C@@H](n2cnc3c(N)ncnc32)[C@H](O)[C@@H]1O", "note": "[acyl-AMS, acetyl-adenosine monosulfonamide]", "values": [{"measurement": "Ki", "setting": "[1]", "result": 590, "unit": "nM"}]}
{"molecule": "CCCCOP(=O)(O)OC[C@H]1O[C@@H](n2cnc3c(N)ncnc32)[C@H](O)[C@@H]1O", "note": "[butyl-AMP]", "values": [{"measurement": "IC50", "setting": "[3]", "result": "> 50000", "unit": "nM"}, {"measurement": "IC50", "setting": "[1]", "result": "> 50000", "unit": "nM"}, {"measurement": "Ki", "setting": "[1]", "result": "> 50000", "unit": "nM"}, {"measurement": "inhibition of CnAcs1", "setting": "[1]", "result": "no inhibition"}, {"measurement": "IC50", "setting": "[4]", "result": "> 50000", "unit": "nM"}, {"measurement": "ΔTm at 1000 µM", "setting": "[2]", "result": 6.7, "unit": "°C"}]}
{"molecule": "CCCC(=O)O", "note": "[butyrate, reference compound]", "values": [{"measurement": "utilization as substrate for CnAcs1", "setting": "[1]", "result": "neither valerate nor butyrate were CnAcs1 substrates"}, {"measurement": "inhibition of acetate utilization", "setting": "[1]; non-preferred acid substrate", "result": "does not inhibit"}]}
{"molecule": "CCOP(=O)(O)OC[C@H]1O[C@@H](n2cnc3c(N)ncnc32)[C@H](O)[C@@H]1O", "note": "[ethyl-AMP]", "values": [{"measurement": "IC50", "setting": "[5]", "result": 60, "unit": "nM"}, {"measurement": "IC50", "setting": "[3]", "result": 60, "unit": "nM"}, {"measurement": "IC50", "setting": "[1]", "result": 2100, "unit": "nM"}, {"measurement": "Ki", "setting": "[1]", "result": 470, "unit": "nM"}, {"measurement": "IC50", "setting": "[6]", "result": 70, "unit": "nM"}, {"measurement": "IC50", "setting": "[4]", "result": 290, "unit": "nM"}, {"measurement": "ΔTm at 1000 µM", "setting": "[2]", "result": 14.2, "unit": "°C"}]}
{"molecule": "NCC(=O)NS(=O)(=O)OCC1OC(n2cnc3c(N)ncnc32)C(O)C1O", "note": "(centres unmarked) [glycine derivative of AMS]", "values": [{"measurement": "inhibition of CnAcs1", "setting": "[1]", "result": "no inhibition"}]}
{"molecule": "COP(=O)(O)OC[C@H]1O[C@@H](n2cnc3c(N)ncnc32)[C@H](O)[C@@H]1O", "note": "[methyl-AMP]", "values": [{"measurement": "Ki", "setting": "[1]", "result": "39000 ± 11000", "unit": "nM"}, {"measurement": "fold less active than ethyl AMP ester", "setting": "[1]", "result": "~100", "unit": "fold"}, {"measurement": "ΔTm at 1000 µM", "setting": "[2]", "result": 8.3, "unit": "°C"}]}
{"molecule": "CCC(=O)O", "note": "[propionate, reference compound]", "values": [{"measurement": "Km fold higher than acetate", "setting": "[1]; alternative acid substrate, relative to acetate", "result": "> 100", "unit": "fold"}]}
{"molecule": "CCCOP(=O)(O)OC[C@H]1O[C@@H](n2cnc3c(N)ncnc32)[C@H](O)[C@@H]1O", "note": "[propyl-AMP, propyl-adenosine monophosphate ester]", "values": [{"measurement": "Ki", "setting": "[1]", "result": "1240 ± 200", "unit": "nM"}, {"measurement": "ΔTm at 1000 µM", "setting": "[2]", "result": 12.2, "unit": "°C"}]}
{"molecule": "CCCCC(=O)O", "note": "[valerate, reference compound]", "values": [{"measurement": "utilization as substrate for CnAcs1", "setting": "[1]", "result": "neither valerate nor butyrate were CnAcs1 substrates"}]}
{"molecule": "C. albicans Acs1 (Candida albicans SC5314)", "values": [{"measurement": "Km", "setting": "[7]; other: substrate Km, other substrates in excess, 37 °C, ±S.E.M.", "result": "471 ± 45", "unit": "µM"}]}
{"molecule": "C. immitis Acs1 (Coccidioides immitis RS)", "values": [{"measurement": "Km", "setting": "[7]; 37.0 °C", "result": "441 ± 45", "unit": "µM"}, {"measurement": "Km", "setting": "[8]", "result": "102 ± 8", "unit": "µM"}]}
{"molecule": "C. posadasii Acs1 (Coccidioides posadasii C735 delta SOWgp)", "values": [{"measurement": "Km", "setting": "[7]; 37.0 °C", "result": "314 ± 32", "unit": "µM"}, {"measurement": "Km", "setting": "[8]", "result": "117 ± 15", "unit": "µM"}]}
{"molecule": "CnAcs1 (Cryptococcus neoformans H99) (protein) GKTEVAPGVHHVHPLPDSVPESEDLFAPPPRMQGKEGRPKPHIGPNYESYVKEWAKTVGPNSDEWWAAKARETLDWYDDFKTVRAGGFEHGDVQWFPEGTLNAAYNCLDRHYYKNPKKTAIIYEADEPSESREVSYEELMQETCRVANVLKSYGVKKGDAVSIYLPMTWQAAAAFLACARIGAIHSAVFAGFSAESLRDRVNDCECKVLITTDEGRRGGKTIATKQIVDAALQQCPLVENVLVLRRTGNKVPMTEGRDKWWDEECAKMPAYCPCERMASEDPLFILYTSGSTGKPKGVVHSTAGYLLGTALTLKYVFDAHPDDRFACMADIGWITGHSYIIYGPLANGITTAVFESTPVYPTPSRYWDFVDKWKATQLYTAPTAIRLLRRMGEDHVKNHDLSSLRVLGSVGEPINPEAWHWYNDFAGKNQCAIVDTYWMTETGSISIAPLPGAISTKPGSATFPFFGMDVDIIDPQTGQVLEGNDVEGVLVARRPWPSIARTVYRDHKRYLETYMKPYPGYFFFGDGAARDYDGYMWIKGRVDDVINVSGHRLSTAEVESALILHKGVAETAVVGCADDLTGQAVYAFVTMKPEFDLKATKEADLSKELAIQVRKVIGPFAAPKKIYLVSDLPKTRSGKIMRRVLRKIVAGEGDQLGDLSSIADPQIVEEVKQKVTGSA", "values": [{"measurement": "Km", "setting": "[9]; [11]", "result": "880 ± 170", "unit": "µM"}, {"measurement": "Km", "setting": "[10]; [11]", "result": "59 ± 10", "unit": "µM"}]}
{"molecule": "A. fumigatus Acs1 (Aspergillus fumigatus Af293) (protein) SDGDVKPAKPAVVLEANDVDTFHVPKAFYEKHPSKTHLKDLDEYKKLYDESIRSPDTFWARMARELLTFDKDFQTTHIGSLENGDNAWFVEGRLNASFNCVDRHAIKNPNKVAIIYEADEPNEGRIITYGELLREVSRVAWVLKQRGVKKGDTVAIYLPMIPEAVVAFLACARIGAIHSVVFAGFSSDSLRDRVLDAGSKVVITTDEGKRGGKVIGTKRIVDEALKQCPDVTSVLVYKRTGAEVPWTNGRDIWWHEEVEKYPCYVAPESMSSEDPLFLLYTSGSTGKPKGVMHTTAGYLLGAAMTGKYVFDIHDDDRFFCGGDVGWITGHTYVVYAPLLLGCSTVVFESTPAYPNFSRYWDVIEKHKVTQFYVAPTALRLLKRAGDEHIHHKMEHLRILGSVGEPIAAEVWKWYFEKVGKEEAHICDTYWQTETGSHVISPLGGITSTKPGSASLPFFGIEPAIIDPVSGEEISGNDVEGVLAFKQPWPSMARTVWGAHKRYMDTYLNVYKGYYFTGDGAGRDHDGYYWIRGRVDDVVNVSGHRLSTAEIEAALIEHHQVAEAAVVGIADELTGQAVNAFVSLKDGNETTEQVRKDLVMQVRKSIGPFAAPKAVFVVEDLPKTRSGKIMRRILRKILSGEEDSLGDTSTLSDPSVVNKIIETVHAARAK", "values": [{"measurement": "Km", "setting": "[9]; [12]", "result": "340 ± 26", "unit": "µM"}, {"measurement": "Km", "setting": "[10]; [12]", "result": "42 ± 11", "unit": "µM"}]}
{"molecule": "S. cerevisiae Acs1 (Saccharomyces cerevisiae S288C) (protein) MSPSAVQSSKLEEQSSEIDKLKAKMSQSAATAQQKKEHEYEHLTSVKIVPQRPISDRLQPAIATHYSPHLDGLQDYQRLHKESIEDPAKFFGSKATQFLNWSKPFDKVFIPDPKTGRPSFQNNAWFLNGQLNACYNCVDRHALKTPNKKAIIFEGDEPGQGYSITYKELLEEVCQVAQVLTYSMGVRKGDTVAVYMPMVPEAIITLLAISRIGAIHSVVFAGFSSNSLRDRINDGDSKVVITTDESNRGGKVIETKRIVDDALRETPGVRHVLVYRKTNNPSVAFHAPRDLDWATEKKKYKTYYPCTPVDSEDPLFLLYTSGSTGAPKGVQHSTAGYLLGALLTMRYTFDTHQEDVFFTAGDIGWITGHTYVVYGPLLYGCATLVFEGTPAYPNYSRYWDIIDEHKVTQFYVAPTALRLLKRAGDSYIENHSLKSLRCLGSVGEPIAAEVWEWYSEKIGKNEIPIVDTYWQTESGSHLVTPLAGGVTPMKPGSASFPFFGIDAVVLDPNTGEELNTSHAEGVLAVKAAWPSFARTIWKNHDRYLDTYLNPYPGYYFTGDGAAKDKDGYIWILGRVDDVVNVSGHRLSTAEIEAAIIEDPIVAECAVVGFNDDLTGQAVAAFVVLKNKSSWSTATDDELQDIKKHLVFTVRKDIGPFAAPKLIILVDDLPKTRSGKIMRRILRKILAGESDQLGDVSTLSNPGIVRHLIDSVKL", "values": [{"measurement": "Km", "setting": "[9]; [13]", "result": "348 ± 43", "unit": "µM"}, {"measurement": "Km", "setting": "[10]; [13]", "result": "161 ± 73", "unit": "µM"}]}
